The source of these data is ChEMBL document CHEMBL5143617 (Eur J Med Chem, 2022).

For data set [1], the target named is 5-hydroxytryptamine receptor 6 (Homo sapiens) (UniProt P50406). The data set can be described thus: Inhibition of 5-HT6 receptor (unknown origin). The settings on record: concentration not given here.
Data set [2] can be described thus: Tmax in mouse striatum at 0.625 mg/kg, ip by LC/ESI-MS/MS analysis. Format: ADME, organism-based.
For a further data set, the system named is Mus musculus. Description: Antidepressant activity in Swiss albino mouse assessed as reduction in immobility time at 0.625 mg/kg, ip measured for last 4 mins of 6 mins test by forced swim test. The data set is classed as functional. On the set-up: scale not given: the % may be the effect or the level left. Particulars: 0.1 h.
Data set [3] can be described thus: Cmax in mouse striatum at 0.625 mg/kg, ip by LC/ESI-MS/MS analysis. The data set is classed as ADME, organism-based. On the set-up: dose 0.625 mg/kg, route ip.
The target in data set [4] is cAMP and cAMP-inhibited cGMP 3',5'-cyclic phosphodiesterase 10A (Homo sapiens, UniProt Q9Y233). The data set can be described thus: Inhibition of PDE10A (unknown origin) at 10 uM preincubated for 20 mins followed by substrate addition and measured after 1 hr by PEDlight AMP detection reagent based luminescence assay relative to control. The settings on record: time 80.0 min.

Data set [5] can be described thus: AUC(0 to t) in mouse plasma at 0.625 mg/kg, ip measured up to 480 mins by LC/ESI-MS/MS analysis. Format: ADME, organism-based. On the set-up: time < 480 min, dose 0.625 mg/kg, route ip. Particulars: in vivo, 8 h.
A short description of data set [6]: Aqueous solubility of compound in simulated intestinal fluid by UV absorbance based analysis. Format: physicochemical.
Data set [7] is described as follows: Apparent volume of distribution in mouse plasma at 0.625 mg/kg, ip measured up to 480 mins by LC/ESI-MS/MS analysis. The data set is classed as ADME, organism-based.
A short description of data set [8]: AUC(0 to t) in mouse hippocampus at 0.625 mg/kg, ip by LC/ESI-MS/MS analysis. Format: ADME, organism-based. More on the design: dose 0.625 mg/kg, route ip.
The nature of data set [9]: Ratio of drug concentration in striatum to plasma in mouse at 0.625 mg/kg, ip by LC/ESI-MS/MS analysis. Format: ADME, organism-based. Particulars: striatum and plasma.
Data set [10] can be described thus: Tmax in mouse hippocampus at 0.625 mg/kg, ip by LC/ESI-MS/MS analysis. The data set is classed as ADME, organism-based.
The nature of data set [11]: Tmax in mouse plasma at 0.625 mg/kg, ip measured up to 480 mins by LC/ESI-MS/MS analysis. Format: ADME, organism-based.
Data set [12] deals with T1, 5-hydroxytryptamine receptor 1A (Homo sapiens, UniProt P08908).
T1 sequence (P08908 whole entry): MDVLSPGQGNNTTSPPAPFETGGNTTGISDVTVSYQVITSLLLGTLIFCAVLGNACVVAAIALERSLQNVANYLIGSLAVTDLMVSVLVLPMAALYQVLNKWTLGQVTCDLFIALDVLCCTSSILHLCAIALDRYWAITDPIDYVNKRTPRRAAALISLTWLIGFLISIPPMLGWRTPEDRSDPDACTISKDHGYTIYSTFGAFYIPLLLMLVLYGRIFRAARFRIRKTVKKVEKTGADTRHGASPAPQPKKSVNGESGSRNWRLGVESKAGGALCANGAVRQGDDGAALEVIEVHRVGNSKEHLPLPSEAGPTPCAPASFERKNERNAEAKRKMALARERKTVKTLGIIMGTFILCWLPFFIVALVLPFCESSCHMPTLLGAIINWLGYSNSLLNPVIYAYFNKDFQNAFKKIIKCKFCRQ
Description: Agonist activity at human 5-HT1A receptor expressed in CHO-K1 cells assessed as stimulation of ERK1/2 phosphorylation incubated for 15 mins by Alpha LISA assay. Format: functional, cell-based.

Data set [13] in a line: Efflux ratio of apparent permeability across basolateral to apical membrane to apical to basolateral membrane in human Caco-2 cells. Format: ADME, cell-based.
The next data set relates to Erythrocyte. The data set can be described thus: Hemolytic activity in human erythrocytes at 10^-6 to 10^-5 M after 30 mins by spectrophotometry. The data set is classed as toxicity, cell-based. The settings on record: 0.5 h, dose lower 1e-06 µmol/L, dose upper 1e-05 µmol/L.
Data set [14] in a line: Cmax in mouse plasma at 0.625 mg/kg, ip measured up to 480 mins by LC/ESI-MS/MS analysis. Format: ADME, organism-based. On the set-up: time < 480 min, dose 0.625 mg/kg, route ip.
The target of data set [15] is T1, 5-hydroxytryptamine receptor 1A. The data set can be described thus: Agonist activity at human 5-HT1A receptor expressed in U2OS cells assessed as beta-arrestin recruitment incubated for 5 hrs by Tango assay. Format: functional, cell-based.
The nature of data set [16]: Cmax in mouse frontal cortex at 0.625 mg/kg, ip by LC/ESI-MS/MS analysis. Format: ADME, organism-based. More on the design: dose 0.625 mg/kg, route ip.
Data set [17] is described as follows: Plasma protein binding in human by LC-MS/MS analysis. Format: ADME, cell-free. Particulars: read-out: PPB (converted).
Data set [18] is described as follows: Tmax in mouse frontal cortex at 0.625 mg/kg, ip by LC/ESI-MS/MS analysis. The data set is classed as ADME, organism-based.

≈ marks a conversion by molar mass, not a printed value.

Chain of cAMP and cAMP-inhibited cGMP 3',5'-cyclic phosphodiesterase 10A (Q9Y233 whole entry): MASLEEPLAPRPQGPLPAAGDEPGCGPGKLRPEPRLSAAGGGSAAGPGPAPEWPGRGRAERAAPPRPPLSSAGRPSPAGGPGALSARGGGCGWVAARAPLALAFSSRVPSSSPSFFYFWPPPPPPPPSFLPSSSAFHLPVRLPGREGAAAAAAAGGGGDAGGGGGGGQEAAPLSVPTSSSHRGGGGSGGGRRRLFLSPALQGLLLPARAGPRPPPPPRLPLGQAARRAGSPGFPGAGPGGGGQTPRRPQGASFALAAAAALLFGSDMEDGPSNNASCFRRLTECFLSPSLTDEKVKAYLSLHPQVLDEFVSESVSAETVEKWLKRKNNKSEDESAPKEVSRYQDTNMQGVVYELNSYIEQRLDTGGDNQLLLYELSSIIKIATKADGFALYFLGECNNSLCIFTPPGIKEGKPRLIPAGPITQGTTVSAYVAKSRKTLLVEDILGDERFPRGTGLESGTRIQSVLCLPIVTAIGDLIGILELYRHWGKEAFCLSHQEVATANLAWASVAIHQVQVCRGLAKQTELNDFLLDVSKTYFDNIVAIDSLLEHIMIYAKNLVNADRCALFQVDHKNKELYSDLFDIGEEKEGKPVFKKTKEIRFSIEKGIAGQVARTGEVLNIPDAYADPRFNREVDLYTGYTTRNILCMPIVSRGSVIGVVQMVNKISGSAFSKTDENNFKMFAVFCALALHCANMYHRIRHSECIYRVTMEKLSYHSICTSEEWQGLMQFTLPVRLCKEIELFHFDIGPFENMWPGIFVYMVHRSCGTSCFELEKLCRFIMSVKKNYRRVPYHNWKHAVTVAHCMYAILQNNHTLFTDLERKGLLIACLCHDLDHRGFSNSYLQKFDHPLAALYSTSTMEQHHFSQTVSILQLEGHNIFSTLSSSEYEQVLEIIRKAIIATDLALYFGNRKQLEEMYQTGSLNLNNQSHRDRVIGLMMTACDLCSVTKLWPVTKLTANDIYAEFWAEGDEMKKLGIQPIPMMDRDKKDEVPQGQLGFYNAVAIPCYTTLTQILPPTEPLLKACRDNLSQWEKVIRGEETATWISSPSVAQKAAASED
Chain of 5-hydroxytryptamine receptor 6 (Homo sapiens) (P50406 whole entry): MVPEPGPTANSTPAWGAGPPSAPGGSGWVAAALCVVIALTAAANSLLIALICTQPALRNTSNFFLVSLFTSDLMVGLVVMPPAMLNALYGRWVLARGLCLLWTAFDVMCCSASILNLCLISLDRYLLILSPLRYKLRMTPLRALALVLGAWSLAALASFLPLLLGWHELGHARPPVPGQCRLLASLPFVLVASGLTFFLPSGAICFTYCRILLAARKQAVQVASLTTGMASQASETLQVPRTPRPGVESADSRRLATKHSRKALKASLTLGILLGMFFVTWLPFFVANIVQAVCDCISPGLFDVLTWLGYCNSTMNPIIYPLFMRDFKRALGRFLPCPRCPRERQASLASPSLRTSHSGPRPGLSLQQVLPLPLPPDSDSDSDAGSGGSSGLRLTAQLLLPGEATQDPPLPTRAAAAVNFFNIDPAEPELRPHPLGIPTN

As to `COc1cc2ncnc(N3CCC(CN4CCN(c5ccc(Cl)cc5)CC4)C3)c2cc1OC` (stereo not given), the inhibition was 8% in data set [1] and 21% in data set [4]. In addition, the Tmax in data set [2] was 30 min; in [10], 30 min; in [11] it was 5 min; in [18], 480 min. Besides, the Activity is recorded as 50% with Mus musculus and “Non-Toxic” in the data set with Erythrocyte. Further, the Cmax came out at 317 ng/mL in [3], 4.1 ng/mL in [14] and 327 ng/mL in data set [16]. The same compound yielded an AUCt in data set [5] of 730 ng·min/mL. The solubility in data set [6] is 181 µM (≈ 84.7 µg/mL). The Vd/F in data set [7] is 0.272 L/kg. Moreover, the area under the curve AUC(0-t) in [8] is 1040 ng·h/mL. The partition ratio (Kp) in [9] stood at 87.4. Besides, the EC50 is 4.79 µM in data set [12] and 12 µM in [15]. In addition, the efflux ratio in data set [13] was determined as 0.19. Also, the fraction unbound in data set [17] was 0.018.
